Results published in patent US4018801A, “Substituted oxirane compounds” (The Dow Chemical Company, priority 1975, dated 1977).

Key:
Wild Oats = assay: Pre-emergent control of seed germination, soil drench; format: in vivo; conditions: Wild Oats, about 2 weeks
Source text: (§1) Four parts by weight of the compound, 0.08 part of sorbitan trioleate (Span 85), and 0.02 part of a sorbitan monooleate polyoxyethylene derivative (Tween 80) are dipersed in 40 milliliters of acetone to produce a concentrate composition in the form of a water-dispersible liquid containing the predetermined oxirane compound as the sole active agent.
(§2) A portion of each of these concentrate compositions were separately dispersed in portions of water to provide aqueous compositions, containing 0.44 pound of the oxirane compound per 100 gallons of ultimate aqueous mixture.
(§3) The aqueous compositions were then employed for the treatment of seed beds of good agricultural soil which had been prepared and seeded with the seeds of various grass species and broadleaf plants. The grass species included white winter wheat, cultured rice, pigweeds, crabgrass, cheat grass, wild oats, Johnson grass, barnyard grass and yellow foxtail; and the broadleaf plants included corn. In the treating operations, a predetermined quantity of each of the compositions was applied to separate seedbeds as a soil drench at a rate of about 0.43 acre inch of aqueous composition per acre. The quantities were controlled to supply a substantial uniform dosage in a seedbed equivalent to 1.0, 2.0 and 5.0 pounds of the oxirane compound per acre. These dosages correspond, respectively, to a concentration, within the soil depth penetrated of about 1.6, 3.2 and 8.0 parts by weight of the oxirane compound per million parts by weight of soil. Other seedbeds were similarly seeded with the named plant species but were left untreated to serve as checks.
(§4) After about 2 weeks the seedbeds were examined to ascertain what control of the growth of seeds had been obtained.
(§5) were prepared as in Example 32 and similarly employed for the pre-emergencetreatment of various plant species.
(§6) An aqueous composition containing 2-(α,α,α -trifluoro-m-tolyl)-2-(2,2,2-trichloroethyl)oxirane was prepared as described in Example 32. The composition was then employed according to the procedures of Example 32 except that lower concentrations of the oxirane compound were employed in the composition.
(§7) The percent control of the various plant species at the employed dosage rate of the 2-(α,α,α-trifluoro-m-tolyl)- 2-(2,2,2-trichloroethyl) supplied by the composition is set forth in the following Table IV.

Yellow Foxtail = assay: as above; format: in vivo; conditions: Yellow Foxtail, 1.0 pounds per surface acre, about 2 weeks
Source text: as §1, §2, §3, §4, §5, §6, §7

Barnyard Grass = assay: as above; format: in vivo; conditions: Barnyard Grass, about 2 weeks
Source text: as §1, §2, §3, §4, §5, §6, §7

Pigweeds = assay: as above; format: in vivo; conditions: Pig Weeds, about 2 weeks
Source text: as §1, §2, §3, §4, §5, §6, §7

Mycobacterium phlei = assay: Control of fungal plants on nutrient agar; format: cell-based; conditions: 500 parts by weight per million
Protocol: (§8) Separate acetone compositions containing 100 and 500 parts, respectively, of each of 2-(p-nitrophenyl)- 2-(2,2,2-trichloroethyl)oxirane and 2-(m-nitrophenyl)- 2-(2,2,2-trichloroethyl)oxirane compounds per million parts by weight of ultimate mixture were prepared by dissolving a pre-determined amount of each of the above compounds in acetone to give the desired concentrations. The solutions were dispersed in melted nutrient agar to produce culture media for fungal plants. The agar solutions were poured into petri dishes and allowed to solidify. The solidified agar surface in each petri dish was inoculated with one species of a fungal plant; the plants employed being Staphylococcus aureus, Candida albicans, Trichophton mentagrophytes, Bacillus subtilis, Aspergillus terreus, Candida pelliculosa, Pullularia pullulans, Mycobacterium phlei, Cephaloascus fragans and Aerobacter aerogenes.
(§9) The inoculation was carried out by applying droplets of a solution containing the fungal plants to the agar surfaces. The inoculated petri dishes were then incubated for an appropriate period of time and under conditions conducive to the growth of the fungal plants involved.
(§10) After incubation, the petri dishes were examined to determine the degree of control of the fungal plants.

[1] = system: Trichophton mentagrophytes; assay: Control of fungal plants on nutrient agar; format: cell-based; conditions: 500 parts by weight per million
Protocol: as §8, §9, §10

Staphylococcus aureus = assay: Control of fungal plants on nutrient agar; format: cell-based; conditions: 500 parts by weight per million
Protocol: as §8, §9, §10

Candida pelliculosa = assay: Control of fungal plants on nutrient agar; format: cell-based; conditions: 500 parts by weight per million
Protocol: as §8, §9, §10

Pullularia pullulans = assay: Control of fungal plants on nutrient agar; format: cell-based; conditions: 500 parts by weight per million
Protocol: as §8, §9, §10

Candida albicans = assay: Control of fungal plants on nutrient agar; format: cell-based; conditions: 500 parts by weight per million
Protocol: as §8, §9, §10

Aspergillus terreus = assay: Control of fungal plants on nutrient agar; format: cell-based; conditions: 500 parts by weight per million
Protocol: as §8, §9, §10

Cephaloascus fragans = assay: Control of fungal plants on nutrient agar; format: cell-based; conditions: 500 parts by weight per million
Protocol: as §8, §9, §10

Bacillus subtilis = assay: Control of fungal plants on nutrient agar; format: cell-based; conditions: 500 parts by weight per million
Protocol: as §8, §9, §10

Cheat Grass = assay: Pre-emergent control of seed germination, soil drench; format: in vivo; conditions: 5.0 pounds per surface acre, about 2 weeks
Source text: as §1, §2
as §3, with “These dosages correspond, respectively, to a concentration, within the soil depth penetrated of about 1.6, 3.2 and 8.0 parts by weight of the oxirane compound per million parts by weight of soil. Other seedbeds were similarly seeded with the named plant species but were left untreated to serve as checks.” left out

Crabgrass = assay: as above; format: in vivo; conditions: Crabgrass, about 2 weeks
Source text: as §1, §2, §3, §4, §5
(§11) Separate aqueous compositions containing the 2-(m-chlorophenyl)-2-(2,2,2-trichloroethyl)oxirane (Cmpd. A) and 2-(m-bromophenyl)-2-(2,2,2-trichloroethyl)oxirane (Cmpd. C) compounds of the present invention were prepared as in Example 32 for comparative per-emergence herbicide tests against noxious grass species with the known 2 -(p-chlorophenyl)-2-(2,2,2-trichloroethyl)oxirane (Cmpd. B) compound and 2-(p-bromophenyl)-2-(2,2,2-trichloroethyl)oxirane (Cmpd. D). The pre-emergence tests were conducted in Example 32 and the results of such tests are set forth below in Table III.
as §6, §7

Johnson Grass = assay: as above; format: in vivo; conditions: Johnson Grass, about 2 weeks
Source text: as §1, §2, §3, §4, §5, §11, §6, §7

Cultured Rice = assay: as above; format: in vivo; conditions: about 2 weeks
Source text: as §1, §2, §3, §4, §6, §7

White Winter Wheat = assay: as above; format: in vivo; conditions: about 2 weeks
Source text: as §1, §2, §3, §4, §6, §7

Corn = assay: as above; format: in vivo; conditions: about 2 weeks
Source text: as §1, §2, §3
After about 2 weeks the seedbeds were examined to ascertain what control of the growth of seeds had been obtained. […]
as §6, §7

O=[N+]([O-])c1cccc(C2(CC(Cl)(Cl)Cl)CO2)c1 (centres unmarked) [Example 2, 2-(m-nitrophenyl)-2-(2,2,2-trichloroethyl)oxirane]
complete control and kill: degree of control of the fungal plants (Mycobacterium phlei) | degree of control of the fungal plants [1] | degree of control of the fungal plants (Staphylococcus aureus) | degree of control of the fungal plants (Candida pelliculosa) | degree of control of the fungal plants (Pullularia pullulans) | degree of control of the fungal plants (Candida albicans) | degree of control of the fungal plants (Aspergillus terreus) | degree of control of the fungal plants (Cephaloascus fragans) | degree of control of the fungal plants (Bacillus subtilis)
50%: Percent Pre-Emergent Control of Seed Germination (Wild Oats; 2.0 pounds per surface acre) | Percent Pre-Emergent Control of Seed Germination (Barnyard Grass; 1.0 pounds per surface acre) | Percent Pre-Emergent Control of Seed Germination (Barnyard Grass; 2.0 pounds per surface acre) | Percent Pre-Emergent Control of Seed Germination (White Winter Wheat; 2.0 pounds per surface acre) | Percent Pre-Emergent Control of Seed Germination (Corn; 2.0 pounds per surface acre)
80%: Percent Pre-Emergent Control of Seed Germination (Wild Oats; 5.0 pounds per surface acre)
90%: Percent Pre-Emergent Control of Seed Germination (White Winter Wheat; 1.0 pounds per surface acre)
85%: Percent Pre-Emergent Control of Seed Germination (Pigweeds; 1.0 pounds per surface acre) | Percent Pre-Emergent Control of Seed Germination (Johnson Grass; 2.0 pounds per surface acre)
95%: Percent Pre-Emergent Control of Seed Germination (Barnyard Grass; 5.0 pounds per surface acre) | Percent Pre-Emergent Control of Seed Germination (Pigweeds; 2.0 pounds per surface acre) | Percent Pre-Emergent Control of Seed Germination (Pigweeds; 5.0 pounds per surface acre) | Percent Pre-Emergent Control of Seed Germination (Crabgrass; 1.0 pounds per surface acre) | Percent Pre-Emergent Control of Seed Germination (Johnson Grass; 5.0 pounds per surface acre) | Percent Pre-Emergent Control of Seed Germination (Cultured Rice; 2.0 pounds per surface acre) | Percent Pre-Emergent Control of Seed Germination (White Winter Wheat; 5.0 pounds per surface acre)
100%: Percent Pre-Emergent Control of Seed Germination (Yellow Foxtail) | Percent Pre-Emergent Control of Seed Germination (Cheat Grass) | Percent Pre-Emergent Control of Seed Germination (Crabgrass; 2.0 pounds per surface acre) | Percent Pre-Emergent Control of Seed Germination (Crabgrass; 5.0 pounds per surface acre) | Percent Pre-Emergent Control of Seed Germination (Cultured Rice; 1.0 pounds per surface acre) | Percent Pre-Emergent Control of Seed Germination (Cultured Rice; 5.0 pounds per surface acre) | Percent Pre-Emergent Control of Seed Germination (Corn; 1.0 pounds per surface acre)
0%: Percent Pre-Emergent Control of Seed Germination (Corn; 5.0 pounds per surface acre)
70%: Percent Pre-Emergent Control of Seed Germination (Johnson Grass; 1.0 pounds per surface acre)
40%: Percent Pre-Emergent Control of Seed Germination (Wild Oats; 1.0 pounds per surface acre)
